The source made the active and inactive calls. The rule behind the calls is not given here.
How the values were obtained:
Reticulitermes speratus [1] = experiment: Ratio of antifeedant activity for compound to antifeedant activity for latifolin against Reticulitermes speratus at 3% measured after 14 days; format: functional
Trametes versicolor [2] = experiment: Antifungal activity against Trametes versicolor NBRC 30340 assessed as mycelial growth inhibition at 5 ug/cm'2 at 25.5 degC after 5 days; format: functional
Reticulitermes speratus [3] = experiment: Ratio of antitermite activity for compound to antitermite activity for latifolin against Reticulitermes speratus at 3% measured after 14 days; format: functional
Reticulitermes speratus [4] = experiment: Antitermite activity against Reticulitermes speratus in compound pretreated paper disks assessed as mortality at 3% measured after 14 days; format: functional
Reticulitermes speratus [5] = experiment: Antifeedant activity against Reticulitermes speratus in compound pretreated paper disks assessed as mass loss of the paper disk at 3% measured after 14 days (reference value: 7.67 mg); format: functional
Trametes versicolor [6] = experiment: Antifungal activity against Trametes versicolor NBRC 30340 assessed as diameter of mycelial growth at 5 ug/cm'2 at 25.5 degC after 5 days; format: functional
Rhizopus arrhizus = experiment: Antifungal activity against Rhizopus oryzae NBRC 31005 assessed as mycelial growth inhibition at 5 ug/cm'2 at 25.5 degC after 36 hr; format: functional, organism-based
[7] = test system: Cladosporium cladosporioides; experiment: Antifungal activity against Cladosporium cladosporioides NBRC 6348 assessed as diameter of mycelial growth at 5 ug/cm'2 at 25.5 degC after 20 days; format: functional
Fomitopsis palustris [8] = experiment: Antifungal activity against Fomitopsis palustris NBRC 30339 assessed as diameter of mycelial growth at 5 ug/cm'2 at 25.5 degC after 14 days; format: functional
Fomitopsis palustris [9] = experiment: Antifungal activity against Fomitopsis palustris NBRC 30339 assessed as mycelial growth inhibition at 5 ug/cm2 at 25.5 degC after 14 days; format: functional

Row | Compound | Ratio (Reticulitermes speratus [1]) | inhibition (INH) (Trametes versicolor [2]) [%] | Ratio (Reticulitermes speratus [3]) | mortality (Reticulitermes speratus [4]) [%] | Activity (Reticulitermes speratus [5]) [mg] | Activity (Trametes versicolor [6]) [mm] | inhibition (Rhizopus arrhizus) | Activity [7] [mm] | Activity (Fomitopsis palustris [8]) [mm] | inhibition (INH) (Fomitopsis palustris [9]) [%]
1 | C=C[C@@H](c1cc(OC(C)=O)c(OC)cc1OC)c1ccccc1OC(C)=O [LATIFOLIN DIACETATE] | 2.89 | 21.8 | 2 | 53.3 | 1.13 | 56.2 | inactive | 28.7 | 51.3 | 1.4
2 | C=C[C@H](c1ccccc1O)c1cc(O)c(OC)cc1OC [LATIFOLIN] | – | 79.1 | – | 26.7 | 0.39 | 15 | inactive | 26.2 | 32.5 | 37.5
3 | C=C[C@H](c1ccccc1O)c1cc(OC)c(OC)cc1OC [5-O-METHYLLATIFOLIN] | 3.25 | 13.2 | 1.13 | 30 | 1.29 | 62.3 | inactive | 29.2 | 52.3 | -0.5
4 | C=C[C@H](c1ccccc1OC)c1cc(OC)c(OC)cc1OC [LATIFOLIN DIMETHYL ETHER] | 3.42 | 15.3 | 2.13 | 56.7 | 1.27 | 60.8 | inactive | 29.3 | 57 | -9.6
5 | C=C[C@H](c1ccccc1OC)c1cc(O)c(OC)cc1OC [2'-O-METHYLLATIFOLIN] | 1.98 | 16.5 | 1.75 | 46.7 | 0.82 | 60 | inactive | 30 | 42.5 | 18.3

From ChEMBL document CHEMBL3044595, “Bioactivity of latifolin and its derivatives against termites and fungi” (2009)
